Earlier results on four compounds are cited in patent US20230201166A1, “METHODS FOR TREATING CANCER BY INHIBITING CARM1” (DANA-FARBER CANCER INSTITUTE, INC., priority 2020, published 2023).

What is called pIC50 is the negative decadic logarithm of the IC50, by convention in mol/L.

pIC50: −log10 of the molar value. Where two headings read alike, the source gives them in different places. Where only a bound is given, the exact number is not on record here.

In data set [1] the target is T1, CARM1 (Homo sapiens, UniProt Q86X55).
T1 sequence (Q86X55 1-608): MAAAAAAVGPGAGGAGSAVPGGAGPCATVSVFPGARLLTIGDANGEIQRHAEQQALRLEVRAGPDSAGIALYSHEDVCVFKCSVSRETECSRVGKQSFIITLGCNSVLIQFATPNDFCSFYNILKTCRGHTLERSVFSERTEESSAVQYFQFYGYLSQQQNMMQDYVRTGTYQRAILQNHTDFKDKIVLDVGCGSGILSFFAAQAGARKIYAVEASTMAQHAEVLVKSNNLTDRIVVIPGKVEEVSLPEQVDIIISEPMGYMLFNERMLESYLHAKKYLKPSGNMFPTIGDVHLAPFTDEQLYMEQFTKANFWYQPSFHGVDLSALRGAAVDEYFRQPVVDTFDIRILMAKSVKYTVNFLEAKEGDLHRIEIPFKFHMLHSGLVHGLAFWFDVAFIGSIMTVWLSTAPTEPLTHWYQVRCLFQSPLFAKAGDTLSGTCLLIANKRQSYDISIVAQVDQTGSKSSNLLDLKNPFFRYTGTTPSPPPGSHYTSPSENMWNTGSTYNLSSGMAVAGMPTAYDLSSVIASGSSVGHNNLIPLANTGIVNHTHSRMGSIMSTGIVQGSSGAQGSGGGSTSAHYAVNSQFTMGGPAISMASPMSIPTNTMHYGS
Particulars: read-out: CARM1 ICW IC50; cited from earlier work.

In data set [2] the target is T1, CARM1. Particulars: read-out: CARM1 Biochemical IC50; cited from earlier work.

Consider `CNC[C@@H](O)COc1ccc(Cl)c(-c2nc(-c3c(C)noc3C)c(C)c(N3Cc4cnc(N5CCC5)nc4C3)n2)c1` [EPZ025654], for which the pIC50 at CARM1 [1] is 7.96. For `CNC[C@@H](O)COc1cc(-c2nc(-c3c(C)noc3C)c(C)c(N3CC4(CCN(C(=O)OC)CC4)C3)n2)ccc1Cl` [compound 3], the pIC50 at CARM1 [1] is less than 5.19; at CARM1 [2], less than 6.00. For the compound `Cn1cnc2ccc(-c3cccc(OCC(O)CN)c3)nc21` (centres unmarked) [compound 1], at CARM1 [1], the pIC50 is less than 4.70. In the case of `CC(C)n1ncc2c(N3CCOCC3)cc(-c3cccc(OCC(O)CN)c3)nc21` (centres unmarked) [compound 2], the pIC50 at CARM1 [1] was 4.72.
